Reference: BigSolDB 2.1

Nc1ncc(Br)nc1Br
solubility (mole fraction)
Conditions	278.15 K	283.15 K	288.15 K	293.15 K	298.15 K	303.15 K	308.15 K	313.15 K	318.15 K	323.15 K
in ethanol	0.000754	0.000938	0.00115	0.00136	0.00158	0.0018	0.00202	0.00231	0.00261	0.00291
in ethylene glycol	0.000127	0.000155	0.000185	0.000219	0.000256	0.000291	0.00033	0.000373	0.00042	0.000469
in isopropanol	0.000516	0.000615	0.00072	0.00085	0.000986	0.00115	0.00131	0.00149	0.00169	0.00192
in propylene glycol	0.000258	0.000304	0.00037	0.000432	0.000506	0.000577	0.000651	0.000734	0.000827	0.000928
in water	2.55e-06	3.14e-06	3.73e-06	4.44e-06	5.18e-06	5.89e-06	6.76e-06	7.68e-06	8.61e-06	9.63e-06

Nc1nccnc1Cl
solubility (mole fraction)
Conditions	278.15 K	283.15 K	288.15 K	293.15 K	298.15 K	303.15 K	308.15 K	313.15 K	318.15 K	323.15 K
in DMF	0.00918	0.0122	0.0155	0.02	0.0247	0.0295	0.0346	0.04	0.0456	0.0515
in ethylene glycol	0.000725	0.000935	0.00117	0.00147	0.0018	0.00217	0.00257	0.00301	0.00348	0.00394
in isopropanol	0.002	0.00254	0.00319	0.004	0.00488	0.00591	0.00697	0.008	0.00929	0.0109
in methanol	0.00283	0.00372	0.00479	0.00598	0.00723	0.00847	0.01	0.0116	0.0133	0.0153
in water	2.78e-05	3.74e-05	4.95e-05	6.21e-05	7.6e-05	9.05e-05	0.000106	0.000123	0.00014	0.000158
